# According to patent US20100087424A1, “TRICYCLIC NITROGEN CONTAINING HETEROCYCLES AS ANTIBACTERIAL AGENTS” (Glaxo Group Limited, priority 2007, published 2010):
# Where a name gives a salt, the structure may show the parent alone.
# Test system: Mycobacterium tuberculosis H37Rv
# Assay: Mycobacterium tuberculosis H37Rv Inhibition Assay (resazurin fluorescence)
# Format: cell-based
# Settings: ATCC 25618 / H37Rv, read-out: MIC value, H37Rv strain (ATCC25618), Middlebrook 7H9+ADC, six days at 37° C., resazurin read after 48 hours
row,Structure (SMILES),MIC [µg/mL]
1,"O=c1ccc2ccc(F)c3c2n1[C@H](CN1CC[C@H](NCc2cc4c(cn2)OCCO4)[C@H](O)C1)CO3 [Example 20, (3R)-3-({(3R,4S)-4-[(2,3-Dihydro[1,4]dioxino[2,3-c]pyridin-7-ylmethyl)amino]-3-hydroxy-1-piperidinyl}methyl)-10-fluoro-2,3-dihydro-5H-[1,4]oxazino[2,3,4-ij]quinolin-5-one dihydrochloride]",≤ 2.8
2,"O=c1ccc2ncc(F)c3c2n1[C@H](CN1CC[C@H](NCc2cc4c(cn2)OCCO4)[C@H](O)C1)CC3 [Example 30, 6-({(3R,4S)-4-[(2,3-dihydro[1,4]dioxino[2,3-c]pyridin-7-ylmethyl)amino]-3-hydroxy-1-piperidinyl}methyl)-3-fluoro-5,6-dihydro-4H,8H-pyrido[3,2,1-de]-1,5-naphthyridin-8-one dihydrochloride]",≤ 2.8
3,"O=C(O)c1ccccc1.O=c1ccc2ncc(F)c3c2n1[C@H](CN1CCC(NCc2cc4c(nn2)OCCS4)CC1)CO3 [Example 48, (6R)-6-({4-[(6,7-dihydro[1,4]oxathiino[2,3-c]pyridazin-3-ylmethyl)amino]-1-piperidinyl}methyl)-3-fluoro-5,6-dihydro-8H-[1,4]oxazino[2,3,4-de]-1,5-naphthyridin-8-one benzoate]",≤ 2.8
